Patent US9758494B2, “N-(oxazol-2-yl)-aryl-carboxylic acid amides and use thereof as herbicides” (BAYER CROPSCIENCE AG, priority 2012, dated 2017)

Key:
Format in all cases: in vivo
[1] = system: Oryza sativa (Rice); assay: Pre-emergence, damage of crop plants; conditions: for damage of crop plants, Crop plant ORYZA: Dosage 320/ha (Table E)
Source text: (§1) Seeds of monocotyledonous and dicotyledonous weed plants and crop plants are laid out in wood-fiber pots in sandy loam and covered with soil. The compounds according to the invention, formulated in the form of wettable powders (WP) or as emulsion concentrates (EC), are then applied to the surface of the soil cover in the form of an aqueous suspension or emulsion at a water application rate equating to 600 to 800 l/ha, with addition of 0.2% wetting agent. After the treatment, the pots are placed in a greenhouse and kept under good growth conditions for the test plants. The damage to the test plants is assessed visually after a test period of 3 weeks by comparison with untreated controls (herbicidal activity in percent (%): 100% activity=the plants have died, 0% activity=like control plants). Here, for example, compounds No. 1-163, 1-171, 1-172, 1-283, 1-284, 1-294, 1-295, 1-334, 10-001 and 11-343, at an application rate of 320 g/ha, have an activity of at least 80% against Veronica persica.
(§2) In the tables below, the properties of the compounds according to the invention are compared to those of the structurally most similar compounds known from WO 2012/028579 A1. These tests were carried out by the pre- and post-emergence method under the conditions mentioned under item 1 and item 2. Here, the herbicidal activity against various harmful plants and the damage of some important crop plants were compared at different dosages.

[2] = system: Brassica napus (Oilseed Rape); assay: Pre-emergence, damage of crop plants; conditions: for damage of crop plants, Crop plant BRSNW: Dosage 320/ha (Table D)
Source text: as §1, §2

[3] = system: Triticum aestivum (Wheat); assay: Pre-emergence, damage of crop plants; conditions: for damage of crop plants, Crop plant TRZAS: Dosage 320/ha (Table E)
Source text: as §1, §2

[4] = system: Oryza sativa (Rice); assay: Post-emergence, damage of crop plants; conditions: for damage of crop plants, Crop plant ORYZA: Dosage 80/ha (Table Q)
Method: (§3) Seeds of monocotyledonous and dicotyledonous weed plants and crop plants are laid out in wood fiber pots in sandy loam, covered with soil and cultivated in a greenhouse under good growth conditions. 2 to 3 weeks after sowing, the test plants are treated at the one-leaf stage. The compounds according to the invention, formulated in the form of wettable powders (WP) or as emulsion concentrates (EC), are then sprayed onto the green parts of the plants in the form of an aqueous suspension or emulsion at a water application rate equating to 600 to 800 l/ha, with addition of 0.2% wetting agent. After the test plants have been left to stand in the greenhouse under optimal growth conditions for about 3 weeks, the action of the preparations is assessed visually in comparison to untreated controls (herbicidal action in percent (%): 100% activity=the plants have died, 0% activity=like control plants). Here, for example, compounds No. 1-163, 1-171, 1-172, 1-173, 1-254, 1-283, 1-284, 1-293, 1-294 and 1-334, at an application rate of 80 g/ha, have an activity of at least 80% against Abutilon theophrasti and Amaranthus retroflexus.
as §2

[5] = system: Brassica napus (Oilseed Rape); assay: Post-emergence, damage of crop plants
Method: as §3, §2

[6] = system: Triticum aestivum (Wheat); assay: Post-emergence, damage of crop plants
Method: as §3, §2

[7] = system: Avena fatua; assay: Pre-emergence herbicidal action
Source text: as §1, §2

[8] = system: Cyperus serotinus; assay: Post-emergence herbicidal action; conditions: Dosage 80/ha (Table Q)
Method: as §3, §2

[9] = system: Lolium multiflorum; assay: Post-emergence herbicidal action; conditions: for herbicidal activity against harmful plants LOLMU: Dosage 20/ha (Table R); for herbicidal activity, Harmful plants LOLMU: Dosage 80/ha (Table Q); for herbicidal activity against harmful plants LOMU: Dosage 80/ha (Table P)
Method: as §3, §2

[10] = system: Setaria viridis; assay: Post-emergence herbicidal action
Method: as §3, §2

[11] = system: Lolium multiflorum; assay: Pre-emergence herbicidal action; conditions: for herbicidal activity against harmful plants LOLMU: Dosage 320/ha (Table F); for herbicidal activity, Harmful plant LOLMU: Dosage 320/ha (Table E)
Source text: as §1, §2

[12] = system: Polygonum convolvulus; assay: Pre-emergence herbicidal action; conditions: for herbicidal activity against harmful plants POLCO: Dosage 320/ha (Table F); for herbicidal activity, Harmful plant POLCO: Dosage 320/ha (Table E)
Source text: as §1, §2

[13] = system: Avena fatua; assay: Post-emergence herbicidal action; conditions: Dosage 80/ha (Table P)
Method: as §3, §2

[14] = system: Alopecurus myosuroides; assay: Post-emergence herbicidal action; conditions: Dosage 80/ha (Table P)
Method: as §3, §2

[15] = system: Amaranthus retroflexus; assay: Pre-emergence herbicidal action; conditions: Dosage 320/ha (Table C)
Source text: as §1, §2

[16] = system: Abutilon theophrasti; assay: Pre-emergence herbicidal action; conditions: Dosage 320/ha (Table C)
Source text: as §1, §2

[17] = system: Echinochloa crus galli; assay: Pre-emergence herbicidal action; conditions: Dosage 320/ha (Table C)
Source text: as §1, §2

[18] = system: Alopecurus myosuroides; assay: Pre-emergence herbicidal action; conditions: Dosage 320/ha (Table D)
Source text: as §1, §2

[19] = system: Matricaria inodora; assay: Pre-emergence herbicidal action; conditions: Dosage 320/ha (Table C)
Source text: as §1, §2

[20] = system: Zea mays (Corn); assay: Post-emergence, damage of crop plants; conditions: Dosage 80 g/ha (Table U)
Method: as §3, §2

## CSc1c(C(F)(F)F)ccc(C(=O)Nc2ncco2)c1C [1-171]
[1]; Dosage 80/ha (Table A)
  damage of crop plants ORYZA: 0%
[1]; Dosage 80/ha (Table B)
  damage of crop plants ORYZA: 0%
[2]; Dosage 80/ha (Table A)
  damage of crop plants BRSNW: 30%
[2]; Dosage 80/ha (Table B)
  damage of crop plants BRSNW: 30%
[3]; Dosage 80/ha (Table A)
  damage of crop plants TRZAS: 0%
[3]; Dosage 80/ha (Table B)
  damage of crop plants TRZAS: 0%
[4]; Dosage 80/ha (Table M)
  damage of crop plants ORYZA: 0%
[4]; Dosage 80/ha (Table N)
  damage of crop plants ORYZA: 0%
[5]; Dosage 80/ha (Table M)
  damage of crop plants BRSNW: 0%
[5]; Dosage 80/ha (Table N)
  damage of crop plants BRSNW: 0%
[6]; Dosage 80/ha (Table M)
  damage of crop plants TRZAS: 0%
[6]; Dosage 80/ha (Table N)
  damage of crop plants TRZAS: 0%

## CCS(=O)(=O)c1ccc(C(=O)Nc2nnnn2C)c(Cl)c1C1=NOC(CC#N)C1 (stereo not shown) [WO 2012/028579, No. 4-268]
[7]; 20 g/ha (Table K)
  Herbicidal activity against AVEFA: 0%
[7]; 80 g/ha (Table K)
  Herbicidal activity against AVEFA: 0%
[5]; 5 g/ha (Table W)
  Damage of BRSNW: 80%
[5]; 20 g/ha (Table W)
  Damage of BRSNW: 100%

## C[S+]([O-])c1c(S(C)(=O)=O)ccc(C(=O)Nc2ncco2)c1Cl (stereo not shown) [1-284]
[8]
  herbicidal activity, Harmful plants CYPES: 60%
[9]
  herbicidal activity against harmful plants LOLMU: 60%
  herbicidal activity, Harmful plants LOLMU: 70%
[10]; Dosage 20/ha (Table R)
  herbicidal activity against harmful plants SETVI: 90%
[11]
  herbicidal activity against harmful plants LOLMU: 100%
[12]
  herbicidal activity against harmful plants POLCO: 70%
[4]
  damage of crop plants, Crop plant ORYZA: 20%

## Cc1c(C(=O)Nc2ncco2)ccc(S(C)(=O)=O)c1S(C)(=O)=O [1-163]
[9]
  herbicidal activity against harmful plants LOMU: 20%
[10]; Dosage 80/ha (Table P)
  herbicidal activity against harmful plants SETVI: 100%
[13]
  herbicidal activity against harmful plants AVEFA: 40%
[14]
  herbicidal activity against harmful plants ALOMY: 60%
[1]
  damage of crop plants, Crop plant ORYZA: 0%
[2]
  damage of crop plants, Crop plant BRSNW: 10%
[3]
  damage of crop plants, Crop plant TRZAS: 0%
[15]
  herbicidal activity against harmful plants AMARE: 90%
[16]
  herbicidal activity against harmful plants ABUTH: 100%
[11]
  herbicidal activity, Harmful plant LOLMU: 100%
[17]
  herbicidal activity against harmful plants ECHCG: 70%
[18]
  herbicidal activity, Harmful plant ALOMY: 30%
[19]
  herbicidal activity against harmful plants MATIN: 100%
[12]
  herbicidal activity, Harmful plant POLCO: 70%
[4]; Dosage 20/ha (Table O)
  damage of crop plants ORYZA: 0%
[5]; Dosage 20/ha (Table O)
  damage of crop plants BRSNW: 40%
[6]; Dosage 20/ha (Table O)
  damage of crop plants TRZAS: 20%

## Cc1c(C(=O)Nc2nnnn2C)ccc(S(C)(=O)=O)c1S(C)(=O)=O [WO 2012/028579, No. 1-188]
[15]
  herbicidal activity against harmful plants AMARE: 40%
[16]
  herbicidal activity against harmful plants ABUTH: 0%
[17]
  herbicidal activity against harmful plants ECHCG: 0%
[19]
  herbicidal activity against harmful plants MATIN: 40%
[4]; Dosage 20/ha (Table O)
  damage of crop plants ORYZA: 20%
[5]; Dosage 20/ha (Table O)
  damage of crop plants BRSNW: 100%
[6]; Dosage 20/ha (Table O)
  damage of crop plants TRZAS: 40%

## CCS(=O)(=O)c1ccc(C(=O)Nc2nc(C)c(C)o2)c(Cl)c1C1=NOC(CC#N)C1 (stereo not shown) [11-343]
[7]; 20 g/ha (Table K)
  Herbicidal activity against AVEFA: 80%
[7]; 20 g/ha (Table L)
  Herbicidal activity against AVEFA: 80%
[7]; 80 g/ha (Table J)
  Herbicidal activity against AVEFA: 80%
[7]; 80 g/ha (Table K)
  Herbicidal activity against AVEFA: 80%
[7]; 80 g/ha (Table L)
  Herbicidal activity against AVEFA: 80%
[7]; 320 g/ha (Table J)
  Herbicidal activity against AVEFA: 100%
[5]; 5 g/ha (Table W)
  Damage of BRSNW: 0%
[5]; 20 g/ha (Table V)
  Damage of BRSNW: 0%
[5]; 20 g/ha (Table W)
  Damage of BRSNW: 0%
[5]; 20 g/ha (Table X)
  Damage of BRSNW: 0%
[5]; 80 g/ha (Table V)
  Damage of BRSNW: 0%
[5]; 80 g/ha (Table X)
  Damage of BRSNW: 0%

## Cn1nnnc1NC(=O)c1ccc(S(C)(=O)=O)c([S+](C)[O-])c1Cl (stereo not shown) [WO 2012/028579, No. 4-293]
[8]
  herbicidal activity, Harmful plants CYPES: 40%
[9]
  herbicidal activity, Harmful plants LOLMU: 40%
[11]
  herbicidal activity against harmful plants LOLMU: 20%
[12]
  herbicidal activity against harmful plants POLCO: 20%
[4]
  damage of crop plants, Crop plant ORYZA: 40%

## CCn1nnnc1NC(=O)c1ccc(S(C)(=O)=O)c([S+](C)[O-])c1Cl (stereo not shown) [WO 2012/028579, No. 5-294]
[9]
  herbicidal activity against harmful plants LOLMU: 10%
[10]; Dosage 20/ha (Table R)
  herbicidal activity against harmful plants SETVI: 0%

## CCn1nnnc1NC(=O)c1ccc(C(F)(F)F)c(SC)c1C [WO 2012/028579, No. 5-146]
[1]; Dosage 80/ha (Table B)
  damage of crop plants ORYZA: 90%
[2]; Dosage 80/ha (Table B)
  damage of crop plants BRSNW: 90%
[3]; Dosage 80/ha (Table B)
  damage of crop plants TRZAS: 30%
[4]; Dosage 80/ha (Table N)
  damage of crop plants ORYZA: 80%
[5]; Dosage 80/ha (Table N)
  damage of crop plants BRSNW: 100%
[6]; Dosage 80/ha (Table N)
  damage of crop plants TRZAS: 60%

## CCS(=O)(=O)c1ccc(C(=O)Nc2ncnn2C)c(Cl)c1C1=NOC(CC#N)C1 (stereo not shown) [WO 2012/028579, No. 1-267]
[7]; 80 g/ha (Table J)
  Herbicidal activity against AVEFA: 0%
[7]; 320 g/ha (Table J)
  Herbicidal activity against AVEFA: 0%
[5]; 20 g/ha (Table V)
  Damage of BRSNW: 90%
[5]; 80 g/ha (Table V)
  Damage of BRSNW: 90%

## CSc1c(C(F)(F)F)ccc(C(=O)Nc2nnnn2C)c1C [WO 2012/028579, No. 4-135]
[1]; Dosage 80/ha (Table A)
  damage of crop plants ORYZA: 60%
[2]; Dosage 80/ha (Table A)
  damage of crop plants BRSNW: 80%
[3]; Dosage 80/ha (Table A)
  damage of crop plants TRZAS: 60%
[4]; Dosage 80/ha (Table M)
  damage of crop plants ORYZA: 100%
[5]; Dosage 80/ha (Table M)
  damage of crop plants BRSNW: 100%
[6]; Dosage 80/ha (Table M)
  damage of crop plants TRZAS: 100%

## Cc1c(C(=O)Nc2nnnn2-c2ccccc2)ccc(S(C)(=O)=O)c1S(C)(=O)=O [WO 2012/028579, No. 6-189]
[9]
  herbicidal activity against harmful plants LOMU: 0%
[10]; Dosage 80/ha (Table P)
  herbicidal activity against harmful plants SETVI: 20%
[13]
  herbicidal activity against harmful plants AVEFA: 0%
[14]
  herbicidal activity against harmful plants ALOMY: 0%
[1]
  damage of crop plants, Crop plant ORYZA: 80%
[2]
  damage of crop plants, Crop plant BRSNW: 90%
[3]
  damage of crop plants, Crop plant TRZAS: 30%
[11]
  herbicidal activity, Harmful plant LOLMU: 70%
[18]
  herbicidal activity, Harmful plant ALOMY: 0%
[12]
  herbicidal activity, Harmful plant POLCO: 0%

## Cn1nnnc1NC(=O)c1ccc(C(F)(F)F)nc1Cl [WO 2012/028579, No. 8-10]
[1]; 20 g/ha (Table I)
  Damage of ORYZA: 50%
[1]; 80 g/ha (Table I)
  Damage of ORYZA: 90%
[4]; Dosage 80 g/ha (Table U)
  damage of crop plants ORYZA: 90%
[20]
  damage of crop plants ZEAMX: 90%

## CCS(=O)(=O)c1ccc(C(=O)Nc2nnnn2-c2ccccc2)c(Cl)c1C1=NOC(CC#N)C1 (stereo not shown) [WO 2012/028579, No. 6-268]
[7]; 20 g/ha (Table L)
  Herbicidal activity against AVEFA: 0%
[7]; 80 g/ha (Table L)
  Herbicidal activity against AVEFA: 0%
[5]; 20 g/ha (Table X)
  Damage of BRSNW: 20%
[5]; 80 g/ha (Table X)
  Damage of BRSNW: 60%
